US20250161264A1, “(AMPAR-PAM)-NMDA RECEPTOR ANTAGONIST COMBINATION THERAPY FOR TREATMENT OF MENTAL CONDITIONS AND DISORDERS” (Gilgamesh Pharmaceuticals, Inc., priority 2022, published 2025)

How the values were obtained:
Male C57BL/6 mice [1] = assay: Accelerating rotarod; format: in vivo, mouse; settings: Compound 18R 3.2, 10 or 32 mg/kg s.c.; BIIB-104 0.03 mg/kg s.c. 0-30 min prior; 5 min and 30 min after second injection
Protocol: Animals. Male C57BL/6 mice (8-10 weeks old) are housed in groups of >2 under standard environmentally controlled conditions (22 to 24° C.; relative humidity of 30 to 70%) with a standard 12-h light cycle. Food and water are available ad libitum.
(§1) Drugs and Drug Administration. Test compounds and vehicle are administered subcutaneously (s.c.), with doses calculated based on the free base. A pharmacologically inert vehicle is used. All compounds are administered at a volume of 10 mL/kg. Test compounds (in each case, BIIB-104+Compound 18R together, or either compound alone) and vehicle are administered as described below.
Rotarod Procedure. Mice will be trained to stay on a rotating bar (‘rotarod’) on days −4 and −2 by being placed on a bar rotating at 4 rpm for 3 min for 3 sessions separated by ˜10 min. On days −1 and 0, this will be repeated using a faster speed of 15 rpm. Mice that have a fall latency <80 s during training will be omitted from the study. On day 1, mice will be administered (s.c.) vehicle or BIIB-104 (0.03 mg/kg) 0-30 min prior to vehicle or Compound 18R (3.2, 10, or 32 mg/kg), for a total of 8 groups of n=10-12/group. Five min after the second injection, mice will be placed on the rotarod which will accelerate from 4 to 40 rpm over 300 s. The latency of mice to fall will be recorded. […]

[2] = system: Male Wistar Han or Wistar Kyoto rats; assay: Chronic mild stress (CMS) procedure, sucrose intake; format: in vivo, rat; settings: stressed rats
Protocol: (§2) Animals. Male Wistar Han or Wistar Kyoto rats (Charles River, Sulzfeld, Germany) are brought into the laboratory at the age of 5 weeks (around 100 g), approximately one month before the start of the experiment. Except for the first 10 days after arrival, when the animals are housed in groups of 10, they are singly housed with food and water freely available, and maintained on a 12-h light/dark cycle in constant temperature (22±2° C.) and humidity (45±5%) conditions.
as §1, with “Test compounds or vehicle are” for “Test compounds and vehicle are”, “inert vehicle (e.g., saline) is used.” for “inert vehicle is used.”, “volume of 2 mL/kg. Test” for “volume of 10 mL/kg. Test”
Chronic Mild Stress (CMS) Procedure and Sucrose Preference. Male rats (250-350 g) are habituated to drinking 1% sucrose to establish a stable level of sucrose intake. […]
(§3) After sucrose intake has been measured, rats are dosed with BIIB-104 or vehicle once daily for up to 4 weeks (Table 1).
Sucrose intake is measured once per week, in each case before drug administration for that day (˜24 h after the previous drug administration). […]

Male C57BL/6 mice [3] = assay: Visual discrimination task; format: in vivo, mouse; settings: Compound 18R 10, 32 or 100 mg/kg s.c.; BIIB-104 0.03 mg/kg s.c. 0-30 min prior
Protocol: Animals Male C57BL/6 mice (8-10 weeks old) are housed in groups of >2 under standard environmentally controlled conditions (22 to 24° C.; relative humidity of 30 to 70%) with a standard 12-h light cycle. Five days prior to the start of operant conditioning experiments, all subjects are placed on a food restriction diet designed to maintain a stable 80-85% of free feeding weight.
as §1, with “below. Mice are tested in a randomized cross-over design such that different compound combinations are tested in the same mice and a sample size of n=8-12/group is achieved. Compound testing sessions are separated by at least 3 days.” for “below.”
Visual Discrimination Procedure. A cohort of mice is trained to perform the visual discrimination task according to published methods (Dillon et al., 2009, Behavioural Brain Research 204, 67-76). The testing apparatus is a standard operant chamber (Med Associates, St Albans, VT). […]

[4] = system: Male Wistar Han or Wistar Kyoto rats; assay: Novel object recognition (NOR) test in CMS rats; format: in vivo, rat; settings: stressed rats; third week of drug testing (typically day 17)
Protocol: as §2
Drugs and Drug Administration. Test compounds or vehicle are administered subcutaneously (s.c.), with doses calculated based on the free base. A pharmacologically inert vehicle (e.g., saline) is used. All compounds are administered at a volume of 2 mL/kg. […]
as §3
Novel Object Recognition (NOR) Test. […] Rats are returned to the open field and the duration of exploration of each object is recorded in a 5-min test. A recognition index is calculated according to the formula: time of novel object exploration minus time of familiar object exploration, divided by total exploration time (novel plus familiar objects). During NOR sessions, the number of line crossings is recorded as a measure of locomotor activity.
All rats (all groups in Table 1) are assessed in the NOR in the third week of drug testing (typically day 17). […]

[5] = system: Male Wistar Han or Wistar Kyoto rats; assay: Elevated plus maze (EPM) in CMS rats; format: in vivo, rat; settings: stressed rats; third week of drug testing (typically day 16); 5-min test
Protocol: as §2
Drugs and Drug Administration. Test compounds or vehicle are administered subcutaneously (s.c.), with doses calculated based on the free base. A pharmacologically inert vehicle (e.g., saline) is used. […]
as §3
Elevated Plus Maze (EPM), Animals are tested in two non-transparent boxes, which consist of two open (50×11×40 cm) and two closed (50×11×40 cm) arms. […] The animals are placed in the center of the apparatus and the time spent in each arm, and number of entries into open and closed arms are recorded during a 5-min test.
All rats (all groups in Table 1) are assessed in the EPM in the third week of drug testing (typically day 16). Stressed vehicle-treated rats (S1) have higher levels of anxiety measured by a lower % time spent in open arms compared to control vehicle-treated rats (C1). […]

Male Sprague Dawley rats = assay: Rat forced swim test (FST); format: in vivo; settings: Example 3; Compound 18R 1, 3.2 or 10 mg/kg s.c., second injection vehicle or BIIB-104 0.03 mg/kg; 23.5 h before Swim 2
Protocol: Animals. Male Sprague Dawley rats, aged 8-10 weeks, are used in the experiments. Animals are housed in groups of 2 under controlled temperature (22±3° C.) and relative humidity (30-70%) conditions, with 12-hour light/dark cycles, and with ad libitum food and water. All efforts are made to minimize suffering.
Drugs and Drug Administration. Test compounds, vehicle, and the positive control desipramine are administered subcutaneously (s.c.), with doses calculated based on the free base. A pharmacologically inert vehicle is used. All compounds are administered at a volume of 5 mL/kg. Test compounds (in each case, an AMPAR-PAM+an NMDAR-ant together, or either compound alone) and vehicle are administered 0.5 h after the start of the training swim (Swim 1) and 23.5 h before the test swim (Swim 2). Desipramine is administered 3 times, at 23.5 h, 5 h, and 1 h before the test swim (Swim 2), each time at a dose of 20 mg/kg.
Forced Swim Test (FST). […] Group size is N=10 per treatment. […]
Behavioral scoring is conducted by observers who are blind to the treatment groups. Animals are continuously observed during Swim 2 and the total time spent engaging in the following behaviors is recorded: immobile, swimming, and climbing. […]
Drugs and Drug Administration. Test compounds, vehicle, and the positive control desipramine are administered subcutaneously (s.c.), with doses calculated based on the free base. […]

Compound | latency to fall off the rotarod (Male C57BL/6 mice [1]) | sucrose intake ([2]; vs vehicle-treated stressed rats, Compound 18R 1.5 mg/kg i.p. day 1, 24 h later) | durability of the effect on sucrose intake ([2]; Compound 18R day 1, then vehicle (S2) or BIIB-104 0.03 mg/kg s.c. (S4) daily days 2-28) | visual discrimination test accuracy (Male C57BL/6 mice [3]) | preference for the novel object (recognition index) [4] | time spent in open arms [5] | immobility time (Male Sprague Dawley rats)
pesampator [BIIB-104, reference compound] | does not change latency to fall |  |  |  |  |  | 
CN[C@@]1(c2ccc(F)cc2)CCCCC1=O [Compound 18R] | dose-dependently reduces the latency of mice to fall | increase in sucrose intake | 1-2 weeks | dose-dependently decreases visual discrimination test accuracy | limited preference for exploring the novel object | greater time in the open arms than stressed vehicle-treated rats (S1), but less time than unstressed vehicle-treated rats (C1) | dose-dependent decrease in immobility time
